The target of assay [1] is T1, TLR8 (Homo sapiens, UniProt Q9NR97).
T1 sequence (Q9NR97 27-1041): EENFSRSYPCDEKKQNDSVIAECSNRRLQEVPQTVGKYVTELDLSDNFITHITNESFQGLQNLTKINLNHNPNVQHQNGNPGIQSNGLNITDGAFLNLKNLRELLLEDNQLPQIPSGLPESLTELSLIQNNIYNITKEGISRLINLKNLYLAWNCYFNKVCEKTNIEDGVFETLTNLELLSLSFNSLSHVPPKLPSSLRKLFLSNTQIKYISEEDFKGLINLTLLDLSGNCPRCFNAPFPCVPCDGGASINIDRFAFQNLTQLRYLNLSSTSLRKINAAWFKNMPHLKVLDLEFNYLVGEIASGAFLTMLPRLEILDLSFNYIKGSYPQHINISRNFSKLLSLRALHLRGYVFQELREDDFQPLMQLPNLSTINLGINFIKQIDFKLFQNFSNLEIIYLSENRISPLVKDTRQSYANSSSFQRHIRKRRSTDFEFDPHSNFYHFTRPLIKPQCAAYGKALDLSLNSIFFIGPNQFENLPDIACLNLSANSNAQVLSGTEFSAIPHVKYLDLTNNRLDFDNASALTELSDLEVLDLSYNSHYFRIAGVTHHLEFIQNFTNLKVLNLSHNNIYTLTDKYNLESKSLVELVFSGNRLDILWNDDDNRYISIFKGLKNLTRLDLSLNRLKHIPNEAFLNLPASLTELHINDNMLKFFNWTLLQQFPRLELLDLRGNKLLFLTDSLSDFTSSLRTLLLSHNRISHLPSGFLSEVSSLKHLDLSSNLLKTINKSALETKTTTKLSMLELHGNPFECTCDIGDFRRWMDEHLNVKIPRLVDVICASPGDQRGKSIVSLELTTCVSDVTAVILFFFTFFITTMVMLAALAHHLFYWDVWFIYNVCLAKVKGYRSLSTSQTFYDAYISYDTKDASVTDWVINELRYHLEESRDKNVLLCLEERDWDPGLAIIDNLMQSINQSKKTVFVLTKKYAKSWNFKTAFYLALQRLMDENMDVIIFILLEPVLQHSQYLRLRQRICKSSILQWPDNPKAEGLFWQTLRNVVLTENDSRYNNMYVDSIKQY
Put plainly: Reporter gene assay, HEK-Blue TLR8 reporter cells (SEAP).
Experimental: (§1) 3×10^4 HEK-Blue™ TLR7 or 3×10^4 TLR8 reporter cells (InvivoGen, San Diego, CA) were treated with titrated (4-fold) amounts of test compound. […] Cells were incubated overnight at 37° C. and 5% CO2, then absorbance (620 and 655 nm) was read on a Synergy™ H1 microplate reader.

In assay [2] the test system is PBMCs. Put plainly: PBMC assay, IL-6 release (HTRF). Type of assay: cell-based. The conditions noted are these: PBMCs from healthy donors, overnight, IL-6 induction by HTRF, average of quadruplicate. The protocol: Whole peripheral blood was obtained from healthy donors. PBMCs were isolated from peripheral blood by density gradient centrifugation. […] The plasma layer containing PBMCs was poured into a new tube and washed twice. Isolated PBMCs were either used fresh or thawed from previously frozen. 1×10^5 PBMCs were cultured with titrating concentrations of compounds of Formula I overnight followed by assaying for cytokines by homogeneous time resolved fluorescence (HTRF).
On the technique in general: In TR-FRET formats the signal depends on donor and acceptor labels being close together.

In assay [3] the target is T2, TLR7 (Homo sapiens, UniProt Q9NYK1).
T2 sequence (Q9NYK1 27-1049): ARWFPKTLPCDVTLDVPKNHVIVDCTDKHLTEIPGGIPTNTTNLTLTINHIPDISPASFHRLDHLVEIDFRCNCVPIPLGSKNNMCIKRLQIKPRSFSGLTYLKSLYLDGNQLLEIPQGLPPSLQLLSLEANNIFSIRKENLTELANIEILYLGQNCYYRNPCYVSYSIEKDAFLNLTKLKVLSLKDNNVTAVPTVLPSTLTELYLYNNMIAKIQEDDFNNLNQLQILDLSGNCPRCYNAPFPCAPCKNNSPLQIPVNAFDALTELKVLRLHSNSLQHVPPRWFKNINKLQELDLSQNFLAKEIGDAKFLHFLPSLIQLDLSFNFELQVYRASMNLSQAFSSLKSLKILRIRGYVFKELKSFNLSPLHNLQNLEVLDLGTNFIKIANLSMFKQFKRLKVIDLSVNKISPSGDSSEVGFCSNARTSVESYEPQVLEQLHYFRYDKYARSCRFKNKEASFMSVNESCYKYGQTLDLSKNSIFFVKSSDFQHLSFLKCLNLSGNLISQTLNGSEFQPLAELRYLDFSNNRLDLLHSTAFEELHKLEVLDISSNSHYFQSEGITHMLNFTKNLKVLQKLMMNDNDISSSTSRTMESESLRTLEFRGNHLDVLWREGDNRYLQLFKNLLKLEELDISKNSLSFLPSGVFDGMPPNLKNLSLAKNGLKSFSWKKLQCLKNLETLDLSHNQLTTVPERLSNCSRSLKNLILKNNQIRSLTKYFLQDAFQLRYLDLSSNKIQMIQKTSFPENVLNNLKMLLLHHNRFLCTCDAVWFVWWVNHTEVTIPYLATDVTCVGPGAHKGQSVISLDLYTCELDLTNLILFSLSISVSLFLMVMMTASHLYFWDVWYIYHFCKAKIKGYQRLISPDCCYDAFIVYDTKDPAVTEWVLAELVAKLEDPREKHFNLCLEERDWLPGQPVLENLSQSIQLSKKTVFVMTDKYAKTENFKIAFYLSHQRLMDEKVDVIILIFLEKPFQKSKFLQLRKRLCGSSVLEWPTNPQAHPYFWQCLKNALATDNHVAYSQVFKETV
Put plainly: Reporter gene assay, HEK-Blue TLR7 reporter cells (SEAP).
Experimental: as §1

The structures appear in SMILES notation.

As usually defined, the EC50 is the concentration that produces a half-maximal response. The low end stands for a more potent agent, the high end for a less potent agent. For the compound `CCCCc1nc2c(N)nc3ccsc3c2n1Cc1cccc(CN2CCC(c3ccncc3)CC2)c1` [Compound 198, 2-butyl-1-(3-((4-(pyridin-4-yl)piperidin-1-yl)methyl)benzyl)-1H-imidazo[4,5-d]thieno [3,2-b]pyridin-4-amine], the EC50 in assay [1] is > 1000 nM; in assay [2] it was 280 nM; in assay [3], 220 nM.
`CCCCc1nc2c(N)nc3ccsc3c2n1Cc1cccc(CN(CC)CC)c1` [Compound 199, 2-butyl-1-(3-((diethylamino)methyl)benzyl)-1H-imidazo[4,5-d]thieno[3,2-b]pyridin-4-amine]: the EC50 in assay [1] came to 430 nM; in assay [2], 330 nM; in assay [3], 130 nM.
The corresponding values for `CCCCc1nc2c(N)nc3ccsc3c2n1Cc1cccc(CN2CCN(CCN3CCOCC3)CC2)c1` [Compound 200, 2-butyl-1-(3-((4-(2-morpholinoethyl)piperazin-1-yl)methyl)benzyl)-1H-imidazo[4,5-d]thieno[3,2-b]pyridin-4-amine] are > 1000 nM, > 1000 nM and 550 nM.
In the same order, the values of `CCCCc1nc2c(N)nc3ccsc3c2n1Cc1cccc(CNCC(C)(C)N2CCOCC2)c1` [Compound 202, 2-butyl-1-(3-(((2-methyl-2-morpholinopropyl)amino)methyl)benzyl)-1H-imidazo[4,5-d]thieno[3,2-b]pyridin-4-amine] are 950 nM, 750 nM and 330 nM.
The corresponding values for `CCCCc1nc2c(N)nc3ccsc3c2n1Cc1cccc(CNCCCCCO)c1` [Compound 203, 5-((3-((4-amino-2-butyl-1H-imidazo[4,5-d]thieno[3,2-b]pyridin-1-yl)methyl)benzyl)amino)pentan-1-ol] are 120 nM, 160 nM and 290 nM.
As to `CCCCc1nc2c(N)nc3ccsc3c2n1Cc1cccc(CNCc2ccc(CO)cc2)c1` [Compound 204, (4-(((3-((4-amino-2-butyl-1H-imidazo[4,5-d]thieno[3,2-b]pyridin-1-yl)methyl)benzyl)amino)methyl)phenyl)methanol], the EC50 in assay [1] was 310 nM; in assay [2], 200 nM; in assay [3], 68 nM.
In the same order, the values of `CCCCc1nc2c(N)nc3ccsc3c2n1Cc1cccc(CNCC(C)(C)O)c1` [Compound 205, 1-((3-((4-amino-2-butyl-1H-imidazo[4,5-d]thieno[3,2-b]pyridin-1-yl)methyl)benzyl)amino)-2-methylpropan-2-ol] are 190 nM, 160 nM and 110 nM.
In the same order, the values of `CCCCc1nc2c(N)nc3ccsc3c2n1Cc1cccc(CNN)c1` [Compound 206, 2-butyl-1-(3-(hydrazineylmethyl)benzyl)-1H-imidazo[4,5-d]thieno[3,2-b]pyridin-4-amine] are > 1000 nM, > 1000 nM and 280 nM.
In the same order, the values of `CCCCc1nc2c(N)nc3ccsc3c2n1Cc1cccc(CO)c1` [Compound 207, (3-((4-amino-2-butyl-1H-imidazo[4,5-d]thieno[3,2-b]pyridin-1-yl)methyl)phenyl)methanol] are > 1000 nM, > 1000 nM and 480 nM.
Regarding `CCCCc1nc2c(N)nc3ccsc3c2n1Cc1cccc(CN2CCNCC2)c1` [Compound 214, 2-butyl-1-(3-(piperazin-1-ylmethyl)benzyl)-1H-imidazo[4,5-d]thieno[3,2-b]pyridin-4-amine], the EC50 in assay [1] is > 1000 nM; in assay [2] it was 750 nM; in assay [3] it was 63 nM.
In the same order, the values of `CCCCc1nc2c(N)nc3ccsc3c2n1Cc1ccccc1CNCCCN1CCN(CCCN)CC1` [Compound 215, 1-(2-(((3-(4-(3-aminopropyl)piperazin-1-yl)propyl)amino)methyl)benzyl)-2-butyl-1H-imidazo[4,5-d]thieno[3,2-b]pyridin-4-amine] are > 1000 nM, > 1000 nM and > 1000 nM.
The corresponding values for `CCCCc1nc2c(N)nc3ccsc3c2n1Cc1ccccc1CN` [Compound 216, 1-(2-(aminomethyl)benzyl)-2-butyl-1H-imidazo[4,5-d]thieno[3,2-b]pyridin-4-amine] are > 1000 nM, > 1000 nM and > 1000 nM.
In the same order, the values of `CCCCc1nc2c(N)nc3ccsc3c2n1Cc1ccccc1CN1CCN(C(=O)OC(C)(C)C)CC1` [Compound 217, tert-butyl 4-(2-((4-amino-2-butyl-1H-imidazo[4,5-d]thieno[3,2-b]pyridin-1-yl)methyl)benzyl)piperazine-1-carboxylate] are > 1000 nM, > 1000 nM and > 1000 nM.
Regarding `CCCCc1nc2c(N)nc3ccsc3c2n1Cc1ccccc1CN1CCNCC1` [Compound 218, 2-butyl-1-(2-(piperazin-1-ylmethyl)benzyl)-1H-imidazo[4,5-d]thieno[3,2-b]pyridin-4-amine], the EC50 in assay [1], in assay [2] and in assay [3] was > 1000 nM throughout.
Consider `CCCCc1nc2c(N)nc3ccsc3c2n1Cc1ccccc1CN1CCC(c2ccncc2)CC1` [Compound 219, 2-butyl-1-(2-((4-(pyridin-4-yl)piperidin-1-yl)methyl)benzyl)-1H-imidazo[4,5-d]thieno[3,2-b]pyridin-4-amine], for which the EC50 in assay [1], in assay [2] and in assay [3] was > 1000 nM throughout.
In the case of `CCCCc1nc2c(N)nc3ccsc3c2n1Cc1ccccc1CNCc1cc[nH]c1` [Compound 220, 1-(2-((((1H-pyrrol-3-yl)methyl)amino)methyl)benzyl)-2-butyl-1H-imidazo[4,5-d]thieno [3,2-b]pyridin-4-amine], the half-maximal effective concentration (EC50) in assay [1], in assay [2] and in assay [3] was > 1000 nM each time.
For `CCCCc1nc2c(N)nc3ccsc3c2n1Cc1ccccc1CN(CC)CC` [Compound 221, 2-butyl-1-(2-((diethylamino)methyl)benzyl)-1H-imidazo[4,5-d]thieno[3,2-b]pyridin-4-amine], the EC50 in assay [1], in assay [2] and in assay [3] was > 1000 nM each time.
`CCCCc1nc2c(N)nc3ccsc3c2n1Cc1ccccc1CN1CCN(CCN2CCOCC2)CC1` [Compound 222, 2-butyl-1-(2-((4-(2-morpholinoethyl)piperazin-1-yl)methyl)benzyl)-1H-imidazo[4,5-d]thieno[3,2-b]pyridin-4-amine]: the EC50 in assay [1], in assay [2] and in assay [3] was > 1000 nM each time.

Values taken from US20250179088A9 (ZYMEWORKS BC INC., priority 2020, published 2025).
